# Test results: patent US20240391862A1, “(1,4,5-TRISUBSTITUTED-1H-PYRAZOL-3-YL)OXY-2-ALKOXY ALKYL ACIDS AND THEIR DERIVATIVES, THEIR SALTS AND THEIR USE AS HERBICIDAL AGENTS” (Bayer AKtiengesellschaft, priority 2021, published 2024)
# Legend:
# ZEAMX = experiment: Post-emergence herbicidal effect and crop plant compatibility, greenhouse pot test; type: in vivo, Zea mays; settings: one-leaf stage, rated visually after about 3 weeks vs untreated controls; for plant injury at 20 g/ha: read-out: Post-emergence effect at 20 g/ha against ZEAMX in %; for plant injury at 80 g/ha: read-out: Post-emergence effect at 80 g/ha against ZEAMX in %
# Outline: (§1)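 Visual % activity scored roughly 3 weeks post-spray against untreated plants, where 100% means death and 0% equals control. Plants were treated at the one-leaf stage, 2 to 3 weeks after sowing in sandy loam, at 20 to 320 g/ha.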
# TRZAS = experiment: as above; type: in vivo, Triticum aestivum; settings: 20 g/ha, one-leaf stage, rated visually after about 3 weeks vs untreated controls; for percent crop injury (phytotoxicity) to wheat, post-emergence at 20 g/ha: Triticum aestivum, 504 h, read-out: Post-emergence effect at 20 g/ha against TRZAS in %
# Outline: as §1
# ABUTH = experiment: Post-emergence herbicidal effect, greenhouse pot test; type: in vivo, Abutilon theophrasti; settings: 320 g/ha, visual rating about 3 weeks after treatment; for pest or weed control at 320 g/ha: Abutilon theophrasti, 504 h, read-out: Post-emergence effect against ABUTH
# Outline: (§2)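 Greenhouse pot plants in sandy loam receive a one-leaf-stage spray at 20 to 320 g/ha. Activity is assessed visually around 3 weeks afterwards on a 0–100% scale, where 100% means the plants have died.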
# ALOMY = experiment: as above; type: in vivo, Alopecurus myosuroides; settings: visual rating about 3 weeks after treatment; for pest or weed control at 320 g/ha: Alopecurus myosuroides, 504 h, read-out: Post-emergence effect against ALOMY
# Outline: as §2
# AMARE = experiment: as above; type: in vivo, Amaranthus retroflexus; settings: visual rating about 3 weeks after treatment
# Outline: as §2
# AVEFA = experiment: as above; type: in vivo, Avena fatua; settings: visual rating about 3 weeks after treatment
# Outline: as §2
# DIGSA = experiment: as above; type: in vivo, Digitaria sanguinalis; settings: 320 g/ha, visual rating about 3 weeks after treatment; for pest or weed control at 320 g/ha: Digitaria sanguinalis, 504 h, read-out: Post-emergence effect against DIGSA
# Outline: as §2
# ECHCG = experiment: as above; type: in vivo, Echinochloa crus-galli
# Outline: as §2
# LOLRI = experiment: as above; type: in vivo, Lolium rigidum; settings: for pest or weed control at 320 g/ha: Lolium rigidum, 504 h, read-out: Post-emergence effect against LOLRI in %
# Outline: as §2
# PHBPU = experiment: as above; type: in vivo, Ipomoea purpurea; settings: 320 g/ha; for pest or weed control at 320 g/ha: Ipomoea purpurea, 504 h, read-out: Post-emergence effect against PHBPU in %
# Outline: as §2
# POLCO = experiment: as above; type: in vivo, Fallopia convolvulus; settings: for pest or weed control at 320 g/ha: Fallopia convolvulus, 504 h, read-out: Post-emergence effect against POLCO in %
# Outline: as §2
# SETVI = experiment: as above; type: in vivo, Setaria viridis; settings: 320 g/ha; for pest or weed control at 320 g/ha: Setaria viridis, 504 h, read-out: Post-emergence effect against SETVI in %
# Outline: as §2
# VERPE = experiment: as above; type: in vivo, Veronica persica; settings: 320 g/ha; for pest or weed control at 320 g/ha: Veronica persica, 504 h, read-out: Post-emergence effect against VERPE in %
# Outline: as §2
# VIOTR = experiment: as above; type: in vivo, Viola tricolor
# Outline: as §2
# KCHSC = experiment: as above; type: in vivo
# Outline: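 Visual rating of activity against untreated plants (100% = plants died, 0% = no effect), done about 3 weeks after treatment. Compounds applied at 20–320 g/ha as aqueous spray (600 l/ha, 0.5% additive) from WP or EC formulations onto one-leaf-stage plants grown in sandy loam under greenhouse conditions.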
# [1] = Amaranthus retroflexus, 504 h, 320 g/ha, read-out: Post-emergence effect against AMARE
# [2] = Echinochloa crus-galli, 504 h, 320 g/ha, read-out: Post-emergence effect against ECHCG in %
# [3] = Viola tricolor, 504 h, 320 g/ha, read-out: Post-emergence effect against VIOTR in %
# [4] = 504 h, 320 g/ha, read-out: Post-emergence effect against KCHSC in %
compound,measurement,setting,value
"COC(=O)CCOC(=O)C(OC)Oc1nn(-c2ncccc2F)c(-c2ccc(F)nc2)c1C1CC1 (single isomer, unassigned) [Example I-88]",Post-emergence effect at 20 g/ha against ZEAMX in %,ZEAMX; 20 g/ha,0%
same,Post-emergence effect at 80 g/ha against ZEAMX in %,ZEAMX; 80 g/ha,0%
same,Post-emergence effect at 320 g/ha against ZEAMX in %,ZEAMX; 320 g/ha,0%
same,Post-emergence effect at 20 g/ha against TRZAS in %,TRZAS,20%
same,Post-emergence effect against ABUTH,ABUTH,80%
same,Post-emergence effect against ALOMY,ALOMY; 80 g/ha,90%
same,Post-emergence effect against ALOMY,ALOMY; 320 g/ha,90%
same,Post-emergence effect against AMARE,AMARE; 320 g/ha,80%
same,Post-emergence effect against AVEFA,AVEFA; 80 g/ha,90%
same,Post-emergence effect against AVEFA,AVEFA; 320 g/ha,90%
same,Post-emergence effect against DIGSA,DIGSA,80%
same,Post-emergence effect against ECHCG,"ECHCG; 20 g/ha, visual rating about 3 weeks after treatment",80%
same,Post-emergence effect against ECHCG in %,ECHCG; 80 g/ha,90%
same,Post-emergence effect against ECHCG in %,ECHCG; 320 g/ha,90%
same,Post-emergence effect against LOLRI in %,LOLRI; 80 g/ha,90%
same,Post-emergence effect against LOLRI in %,LOLRI; 320 g/ha,90%
same,Post-emergence effect against PHBPU in %,PHBPU,90%
same,Post-emergence effect against POLCO in %,POLCO; 20 g/ha,80%
same,Post-emergence effect against POLCO in %,POLCO; 80 g/ha,90%
same,Post-emergence effect against POLCO in %,POLCO; 320 g/ha,90%
same,Post-emergence effect against SETVI in %,SETVI,90%
same,Post-emergence effect against VERPE in %,VERPE,90%
same,Post-emergence effect against VIOTR in %,VIOTR; 80 g/ha,80%
same,Post-emergence effect against VIOTR in %,VIOTR; 320 g/ha,90%
same,Post-emergence effect against KCHSC in %,KCHSC; 80 g/ha,80%
same,Post-emergence effect against KCHSC in %,KCHSC; 320 g/ha,80%
"COC(Oc1nn(-c2cnccn2)c(-c2ccc(F)nc2)c1Cl)C(=O)O (stereo not shown) [Example I-42, {[4-Chloro-5-(6-fluoropyridin-3-yl)-1-(pyrazin-2-yl)-1H-pyrazol-3-yl]oxy}(methoxy)acetic acid]",plant injury at 20 g/ha,"ZEAMX; Zea mays, 504 h, 20 g/ha",0%
same,plant injury at 80 g/ha,"ZEAMX; Zea mays, 504 h, 80 g/ha",0%
same,plant injury at 320 g/ha,"ZEAMX; Zea mays, 504 h, 320 g/ha, read-out: Post-emergence effect at 320 g/ha against ZEAMX in %",20%
same,"percent crop injury (phytotoxicity) to wheat, post-emergence at 20 g/ha",TRZAS,0%
same,pest or weed control at 320 g/ha,ABUTH,80%
same,pest or weed control at 320 g/ha,ALOMY; 320 g/ha,90%
same,pest or weed control at 320 g/ha,AMARE; [1],80%
same,pest or weed control at 320 g/ha,DIGSA,90%
same,pest or weed control at 320 g/ha,ECHCG; [2],90%
same,pest or weed control at 320 g/ha,LOLRI; 320 g/ha,90%
same,pest or weed control at 320 g/ha,PHBPU,80%
same,pest or weed control at 320 g/ha,POLCO; 320 g/ha,80%
same,pest or weed control at 320 g/ha,SETVI,80%
same,pest or weed control at 320 g/ha,VERPE,80%
same,pest or weed control at 320 g/ha,VIOTR; [3],90%
same,pest or weed control at 320 g/ha,KCHSC; [4],90%
CCOC(=O)C(OC)Oc1nn(-c2cnccn2)c(-c2ccc(F)nc2)c1Cl (stereo not shown) [Example I-46],plant injury at 20 g/ha,"ZEAMX; Zea mays, 504 h, 20 g/ha",0%
same,plant injury at 80 g/ha,"ZEAMX; Zea mays, 504 h, 80 g/ha",20%
same,"percent crop injury (phytotoxicity) to wheat, post-emergence at 20 g/ha",TRZAS,0%
same,pest or weed control at 320 g/ha,ABUTH,80%
same,pest or weed control at 320 g/ha,ALOMY; 320 g/ha,90%
same,pest or weed control at 80 g/ha,"AMARE; Amaranthus retroflexus, 504 h, 80 g/ha, read-out: Post-emergence effect against AMARE",80%
same,pest or weed control at 320 g/ha,AMARE; [1],80%
same,pest or weed control at 320 g/ha,DIGSA,80%
same,pest or weed control at 80 g/ha,"ECHCG; Echinochloa crus-galli, 504 h, 80 g/ha, read-out: Post-emergence effect against ECHCG in %",80%
same,pest or weed control at 320 g/ha,ECHCG; [2],90%
same,pest or weed control at 320 g/ha,LOLRI; 320 g/ha,90%
same,pest or weed control at 320 g/ha,PHBPU,90%
same,pest or weed control at 320 g/ha,POLCO; 320 g/ha,80%
same,pest or weed control at 320 g/ha,SETVI,90%
same,pest or weed control at 320 g/ha,VERPE,90%
same,pest or weed control at 80 g/ha,"VIOTR; Viola tricolor, 504 h, 80 g/ha, read-out: Post-emergence effect against VIOTR in %",90%
same,pest or weed control at 320 g/ha,VIOTR; [3],90%
same,pest or weed control at 80 g/ha,"KCHSC; 504 h, 80 g/ha, read-out: Post-emergence effect against KCHSC in %",80%
same,pest or weed control at 320 g/ha,KCHSC; [4],90%
